Source: a melting point compilation (Tetko et al.; mined from patent text by program, amines drawn as free bases though some values may be those of a salt)

Row | Compound | melting point [°C]
1 | COc1ccc(-c2nc(-c3ccccc3)c(-c3ccncc3)n2C)cc1 | 193 to 194
2 | CCCc1ccc2nc(C#N)c(S(N)(=O)=O)n2n1 | 237 to 244
3 | CCOC(=O)Nc1cc(C(=O)NC(C)C)c(Cl)cc1F | 127 to 130
4 | C=Cc1cc(NC(=O)N2CCN(c3cc(C)cc(C)c3)CC2)c(OC)nc1C | 131 to 132
5 | CCCCc1c(NCCCO)cnn(C(C)(C)C)c1=O | 106 to 108
6 | Cc1cncc(C)c1-c1c(C)cc(N=C(c2ccccc2)c2ccccc2)cc1C | 44 to 45
7 | C=CC(=O)OC(C)OC(=O)c1c2ccccc2cc2ccccc12 (configuration not stated) | 66 to 68
8 | O=C1N=NC(=O)c2c1[nH]c1cc(Br)cc(Br)c21 | > 400
9 | CC(Br)C(=O)Nc1ccc(Cl)cc1NC1CC1 (racemic) | 130
10 | COC(=O)[C@H](Cc1cc(C)c(OCc2cccc3nc(-c4ccccc4)oc23)c(C)c1)NC(=O)OC(C)(C)C | 116 to 117
11 | C[C@@H](N1CCN(C(=S)Nc2ccccc2)CC1)[C@](O)(Cn1cncn1)c1ccc(F)cc1F | 106 to 108
12 | CCCn1nc2c(N)nc3ccccc3c2c1CCNC(=O)NC(C)C | 197 to 198
13 | CCCCCC(=O)C=Cc1ccc(O)c(O)c1 | 130 to 131
14 | CCCc1nc2c(N)nc3cc(OCc4cccc(C)c4)ccc3c2n1CC(C)C | 200 to 203
15 | Cc1c(C2CCC(c3ccccc3)(N(C)C)CC2)[nH]c2ccc(O)cc12 (configuration not stated) | 164 to 169
16 | Nc1ncnc2c1ncn2Cc1oc2ccccc2c(=O)c1-c1ccccc1 | 173 to 175
17 | COc1ccc(C(=O)C(=O)c2cccc(-c3ccc(S(C)(=O)=O)cc3)c2-c2ccccc2)cc1OC | 181 to 183
18 | C=Cc1ccc(-c2ccccn2)cc1 | 19.3
19 | CCc1cccc(CC(=O)O)c1OCCCc1cn(-c2ccc(C(F)(F)F)nn2)nc1C(C)C | 126 to 127
20 | COC(C=Cc1ccccc1)=C1C(=O)C=C(C)C1=O | 86
21 | Cc1ccc(C(Cl)=NOS(=O)(=O)CCCCl)cc1 | 56 to 58
22 | COC(=O)c1ccc(C(=O)C=C(c2cc(Cl)cc(C(F)(F)F)c2)C(F)(F)F)c2ccccc12 | 90 to 90.5
23 | CCCCOCCOc1ccc(-c2ccc3c(c2)C=C(C(=O)Nc2ccc(N(C)Cc4nncn4CCC)cc2)CCN3CC(C)C)cc1 | 134 to 136
24 | CC(C)(C)OC(=O)N1CCC(CNc2c([N+](=O)[O-])cnc3cc(-c4ccccc4)ccc23)CC1 | 153 to 154
25 | CC(=O)Nc1ccc(-c2ccc(CC34CCCN3C(=O)N(c3cc(Cl)cc(Cl)c3)C4=O)cc2)cc1 (configuration not stated) | 124

Row | Compound | melting point [°C]
26 | CC(C)OC(=O)N1CC(=S)Nc2ccc(-c3cccc(Cl)c3)cc21 | 208 to 212
27 | O=C1CCC2(CCOC2=O)C(=O)C1 (configuration not stated) | 145 to 148
28 | O=C(Cc1ccccc1)c1ccc(C(F)(F)F)cc1 | 127 to 128
29 | CC(C)(C)Sc1c(CC(C)(C)C(=O)O)n(Cc2ccc(Cl)cc2)c2ccc(OCc3ccccn3)cc12 | 189 to 190
30 | COCNC(=O)C1CN(C(c2ccccc2)c2ccccc2)C1 | 103 to 106
31 | COc1ccc2c(c1)c(CC(=O)O)c(C)n2Cc1ccccc1OC | 176 to 180
32 | COC(=O)Cc1ccc(CNC(=O)[C@@H](CCCNC(N)=N[N+](=O)[O-])NC(=O)C(c2ccccc2)c2ccccc2)cc1 | 158 to 160
33 | CN1CCC(Cn2c(=O)[nH]c3ncc(-c4ccc(O)cc4)nc32)CC1 | 292 to 294
34 | Cc1cccc(Nc2ccc(Nc3ncnc4cc(-c5ccccc5)sc34)cc2)c1 | 170 to 171
35 | O=C(Nc1ccc(Oc2ccc(Cl)cc2Cl)nc1)N1CCc2ccccc2CC1 | 154 to 155
36 | O=C(O)CCCC#CCC1=CC(O)CC1=O (configuration not stated) | 65 to 71
37 | Cc1oc(-c2ccc(-c3ccccc3)cc2)nc1CCOc1ccc(C[C@H](OCC(F)(F)F)C(=O)O)c2ccccc12 | 199 to 200
38 | COC(=O)c1ccc(-c2nc(OC(C)=O)c(C)s2)cc1 | 124 to 125
39 | O=C(O)COc1ccc(NC(=O)OCc2ccccc2)cc1 | 152 to 154
40 | COc1ccc2cc(-c3cccc(C=O)c3)cc(CCNC(C)=O)c2c1 | 123 to 125
41 | Cc1oc(-c2cccc(C#N)c2)nc1CCl | 100 to 101
42 | c1ccc(CSc2nc3sccn3n2)cc1 | 91 to 93
43 | CC(=O)NCCCc1cccc2c1CCO2 | 66 to 67
44 | Cc1cc2c(s1)CCCC(=O)N2 | 133 to 135
45 | CC1(C)CC(=O)C(C(=O)NS(=O)(=O)c2ccc(Cl)cc2)C(=O)C1 | 103 to 106
46 | N#Cc1oc2c(sc3ccccc32)c1O | 174 to 175
47 | Cc1c(NC(=O)c2ccc(OC[C@@H]3CCCO3)cc2)ccc2[nH]c(CNCC(C)(C)O)cc12 | 169 to 170
48 | O=C(Nc1ccccc1)c1ccc(O)c(Nc2ccccc2)c1 | 158 to 159
49 | COc1cc(Nc2nccc(-c3cccc(NCc4cccnc4)c3)n2)cc(OC)c1OC | 78 to 80
50 | O=C(c1cccs1)c1cnn2c(-c3cccc(NCc4ccccc4)c3)ccnc12 | 90 to 92

Row | Compound | melting point [°C]
51 | C=C(C(=O)c1ccc(OC)c(Cl)c1Cl)C1CCCC1 | 59 to 63
52 | ONCc1ccc2c(c1)Cc1ccccc1-2 | 150 to 152
53 | COC(=O)c1ccc2c(c1)OCCC2NC(=O)OCc1ccccc1 (configuration not stated) | 140 to 142
54 | COc1ccc2c(c1)C(c1ccc(OCCN(C)C)cc1)c1c-2ccc2ccccc12 (configuration not stated) | 159 to 160
55 | O=C(O)CCCCn1ccc2cc([N+](=O)[O-])ccc21 | 141 to 142
56 | CCOC(=O)C(=CNC1CC1)C(=O)c1c(N)c(F)c(F)c(OC(F)F)c1F | 103 to 104
57 | O=C(Nc1cccc(-c2ccnc3c(C(=O)c4cccs4)cnn23)c1)OCCCN1CCOCC1 | 198 to 199
58 | CS(=O)c1cc(CCC(=O)OC(C)(C)C)cc(-c2nc(=O)c3ccccc3s2)n1 (configuration not stated) | 220
59 | CN1C/C(=C/C(=O)Nc2ccc(Cl)nn2)C[C@@H]2c3cccc4[nH]cc(c34)C[C@H]21 | 242 to 243
60 | O=C1c2ccccc2-c2ccc(F)cc21 | 113 to 115
61 | O=S(=O)(c1ccc(Cl)cc1)N1CCCC1c1cccs1 (racemic) | 84
62 | CN1C(=O)CC[C@]2(C)c3ccc(Sc4nc5ccc(Cl)cc5s4)cc3CC[C@@H]12 | 156 to 162
63 | CCCCCCCCCCCc1cc2ccc(C(=O)OC)cc2[nH]1 | 84 to 86
64 | COc1cc(OC)nc(NC(=O)NS(=O)(=O)c2ccccc2-c2ccccn2)n1 | 175 to 176
65 | OCC1OC(n2c(SCc3ccccc3)nc3cc(Cl)c(Cl)cc32)C(O)C1O (configuration not stated) | 196 to 198
66 | CCOC(Cc1ccc(NCCCC2=CCC(NS(C)(=O)=O)(OC(C)(C)C)C=C2)cc1)C(=O)O (configuration not stated) | 78 to 80
67 | CCCCCCCCCCCCCCCCCCc1cc(OC(=O)CC)ccc1O | 75 to 78
68 | COC1(OC)CN(c2cc3c(cc2F)c(=O)c(C(=O)O)cn3-c2ccc(F)cc2F)CC1C (configuration not stated) | 193 to 194
69 | CC(=O)N1N=C(c2ccc(N)cc2)c2cc(Cl)ccc2CC1C (configuration not stated) | 187 to 189
70 | Cc1c(C(=O)NN2CCCCC2)nn(-c2ccc(Cl)cc2Cl)c1-c1ccc(Cl)cc1 | 148
71 | Cc1oc(-c2ccccc2)nc1COc1ccc(CC(=O)O)cc1 | 181 to 183
72 | NS(=O)(=O)c1ccc(-c2cn(-c3nc(-c4ccc(F)c(F)c4)cc(C(F)(F)F)n3)cn2)s1 | 228
73 | CNc1cc2c(cc1C)c(=O)c(C(=O)O)cn2-c1cc(N)c(F)cc1F | > 280
74 | CC(C)N(C[C@H](O)[C@H](Cc1ccccc1)NC(=O)[C@H](CC(N)=O)NC(=O)c1ccccn1)NC(=O)OC(C)(C)C | 101 to 108
75 | COc1cc2ncnc(N3CCC(N)CC3)c2cc1OC | 133 to 135

Row | Compound | melting point [°C]
76 | Cc1cc(-c2ccc(Cl)c(Cl)c2)nc(-c2ccnc(-c3ccc(S(N)(=O)=O)s3)c2)n1 | 267
77 | CCCCCCOc1ccc(-c2ncc(Br)cn2)cn1 | 103 to 106
78 | NC(=O)C1(O)c2ccccc2S(=O)(=O)N1Cc1ccc(Br)cc1 (configuration not stated) | 166 to 168
79 | CCOC(=O)/C=C/c1cn(Cc2ccc(OCc3ccccc3)cc2)cc1-c1ccccc1 | 111 to 112
80 | O=C(Cn1cnc2ccccc21)Nc1ccc(-n2nc(C(F)(F)F)cc2C2CC2)cc1 | 178 to 184
81 | COC(=O)c1ccc2c(c1)C(c1ccccn1)CC(C)(C)O2 (configuration not stated) | 113 to 115
82 | CC1(C)C2CCC1(C)C(O)(c1ccccn1)C2 (configuration not stated) | 60 to 61
83 | C[C@]12CC[C@H]3[C@@H](CCC4=CC(=O)CC[C@@H]43)[C@@H]1CCC21CC(O)CO1 (some centres not stated) | 149 to 154
84 | CCCC(=O)Nc1cc(Oc2ccc(Cl)cc2)ccc1NC(=NC(=O)OC)NC(=O)OC | 201
85 | COc1cc(Nc2cc(C(F)(F)F)nc(-c3cc(Cl)nc(Cl)c3)n2)cc(OC)c1 | 109 to 110
86 | CC(=O)c1ccc(-c2ccc(Cl)cc2)cc1 | 100 to 101
87 | CCOc1ccc2[nH]c3c(c2c1)C[C@@]1(C)C(=O)N(CCBr)C(=O)N1[C@@H]3c1cccc(O)c1 (racemic) | 250 to 252
88 | CN(O)C(=O)NCCc1cccc(Oc2ccccc2)c1 | 84.5 to 86
89 | CCc1[nH]n(C2CCCC2)c2nc(S(C)(=O)=O)nc(=O)c1-2 | > 300
90 | CC(=O)NC[C@H]1CN(c2cc(F)c(N3CCC(n4nnnc4CS(C)(=O)=O)CC3)c(F)c2)C(=O)O1 | 192
91 | OCc1coc(Cc2ccc(F)cc2)c1 | 45 to 47
92 | Cc1nc(-c2cnc3[nH]cc(C(=O)N[C@@H](C(=O)N4CC(C#N)C4)C(C)(C)C)c3n2)cn1-c1cc(F)cc(F)c1 | 187 to 190
93 | CCCCCS(=O)(=O)NC(=O)/C(C)=C/c1ccc(OCCCOC)cc1Oc1ncc(Cl)cc1Cl | 116 to 117
94 | O=C1Cc2ccc(N3C(=O)C4=C(CCCC4)C3=O)cc2N1 | 225 to 226
95 | O=C1OC(=O)c2c1cccc2C(F)(F)F | 65 to 67
96 | O=C1CCCc2onc(-c3ccccc3F)c21 | 82 to 83
97 | CCOc1cc(N(CC)CC)ccc1C1(N(c2ccc(N(C)C)cc2)c2ccc(N(C)C)cc2)OC(=O)c2ccccc21 (configuration not stated) | 58 to 69
